The results in this text go back to PubChem BioAssay (NCI).

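A five-concentration, 48-hour dose response in 96-well plates underlies each endpoint, interpolated linearly between surrounding concentrations. GI50: concentration for 50% inhibition of growth. TGI marks complete inhibition of growth.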

What all share (test): NCI anticancer screen, dose series, 48 h
In test [1] the test system is HS 578T breast.
Test [2] relates to A498 renal.
For test [3], the system named is OVCAR-8 ovarian.
Test [4] has as its system NCI-H522 lung.
Test [5] has as its system U251 CNS.
Test [6] relates to SF-268 CNS.
The test system of test [7] is MDA-MB-435.
For test [8], the system named is K-562 leukemia.
The subject of test [9] is CAKI-1 renal.
Test [10] deals with HT29 colon.

For `NC1=C(Cl)C(=O)c2ccc(S(N)(=O)=O)cc2C1=O`, the GI50 in test [1] is 0.126 µM; in [2] it was 0.507 µM; in test [3], 0.273 µM; in [4] it was 0.189 µM; in test [5], 0.184 µM; in test [6] it was 0.372 µM. In addition, the GI50 in test [7] is 0.0288 µM; in [8] it was 0.313 µM; in test [9], 0.82 µM; in test [10], 0.715 µM. Besides, the TGI in [2] was determined as 1.3 µM; in test [3] it was 0.977 µM; in test [4] it was 0.403 µM; in [5], 0.871 µM; in [6], 1.22 µM; in test [7] it was 0.0743 µM. The figures for the TGI in test [8], in [9] and in test [10] were 1.21 µM, 2.28 µM and 2.91 µM, respectively.
In the case of `O=C(O)C1NCCc2c1[nH]c1ccccc21` (stereo not given), the TGI was greater than 10 µM in test [1]; greater than 100 µM in test [2]; greater than 100 µM in test [3]; greater than 100 µM in test [4]; greater than 100 µM in test [5]; greater than 100 µM in test [6]. Besides, the TGI in test [7] is greater than 10 µM; in [8], greater than 100 µM; in test [9], greater than 100 µM; in test [10], greater than 100 µM. Further, the GI50 in test [2], in test [3], in test [4], in test [5], in test [6] and in test [8] was greater than 100 µM throughout. Moreover, the GI50 in [9] and in test [10] was greater than 100 µM throughout.
For the molecule `CN(C)CCCN(c1nc(C(Cl)(Cl)Cl)ns1)c1nc(C(Cl)(Cl)Cl)ns1`, the GI50 in test [1] is 1.72 µM; in test [2], 1.92 µM; in [3], 1.77 µM; in test [4], 1.71 µM; in test [5], 1.76 µM; in test [6] it was 3.12 µM. The GI50 is 2.05 µM in [7], 1.79 µM in test [8], 4.82 µM in test [9] and 1.69 µM in test [10]. The TGI in [1] worked out at 4.46 µM; in test [2], 4.89 µM; in test [3], 3.52 µM; in [4], 3.45 µM; in [5], 3.22 µM; in test [6] it was 11.4 µM. The TGI in test [7] came to 4.54 µM; in test [8] it was 3.93 µM; in [9] it was 18.5 µM; in test [10], 3.37 µM.
In the case of `COc1ccc(-c2cnc3ccnn3c2-c2cc(OC)c(OC)c(OC)c2)cc1`, the GI50 in [1] is 2.37 µM; in test [2], 0.293 µM; in [3], 7.25 µM; in test [4], 0.857 µM; in [5], 4.64 µM; in test [6], 5.86 µM. Moreover, the GI50 in test [7] was 0.282 µM; in test [8], 0.706 µM; in test [10], 3.01 µM. Also, the TGI in [1] is greater than 100 µM; in [2] it was 4.47 µM; in test [3], greater than 100 µM; in [4] it was greater than 100 µM; in [5] it was greater than 100 µM; in [6], greater than 100 µM. The TGI in [7] is 0.976 µM; in [8], greater than 100 µM; in test [10] it was greater than 100 µM.
On to `c1cc(OCCN2CCCCCC2)ccc1CNc1ccc2nc(CCC3CCCCC3)[nH]c2c1`, for which the GI50 in test [1] is 1.7 µM; in test [2] it was 1.94 µM; in test [3], 2.27 µM; in test [4] it was 1.97 µM; in test [5], 1.6 µM; in test [6] it was 2.42 µM. Moreover, the GI50 in [7] was 1.74 µM; in [8] it was 1.63 µM; in test [9] it was 1.98 µM; in test [10], 1.3 µM. Besides, the TGI in [1] was 4.94 µM; in [2], 4.95 µM; in [3], 6.34 µM; in [4] it was 4.34 µM; in test [5], 3.17 µM; in [6], 9.2 µM. The TGI came to 3.35 µM in test [7], 4.61 µM in test [8], 4.05 µM in test [9] and 3.49 µM in test [10].
For the molecule `Cc1cc(O)c(C(c2cccnc2)c2c(O)cc(C)[nH]c2=O)c(=O)[nH]1`, the TGI in [1], in test [3], in [4], in test [5], in test [6] and in test [7] was greater than 100 µM in each case. In addition, the TGI in [8], in test [9] and in [10] was greater than 100 µM in each case.
Turning to `S=c1nc2[nH]ncc2c(N/N=C/c2ccccc2)[nH]1`, the GI50 in test [1] is greater than 100 µM; in [2], 15.3 µM; in test [3] it was greater than 100 µM; in test [4], greater than 100 µM; in test [5], 93.8 µM; in test [6] it was greater than 100 µM. The figures for the GI50 in [7], in test [8] and in test [9] were greater than 100 µM, greater than 100 µM and 31.9 µM, respectively. The TGI in test [1] is greater than 100 µM; in test [2] it was 73.4 µM; in test [3], greater than 100 µM; in [4] it was greater than 100 µM; in test [5], greater than 100 µM; in test [6], greater than 100 µM. Further, the TGI in [7], in [8] and in test [9] was greater than 100 µM each time.
Turning to `COc1ccc(/C=C2\CN(Cc3cn(CCCNc4ccnc5cc(Cl)ccc45)nn3)C/C(=C\c3ccc(OC)c(OC)c3)C2=O)cc1OC`, the GI50 in test [1] was 1.99 µM; in [2], 1.17 µM; in [3], 0.81 µM; in [4], 1.32 µM; in [5] it was 1.19 µM; in [6], 0.743 µM. Further, the results for the GI50 in test [7], in test [8] and in test [10] were 1.12 µM, 0.459 µM and 0.663 µM, respectively. Besides, the TGI in test [1] is 9.97 µM; in test [2], 2.58 µM; in test [3], 15.4 µM; in test [4], 3.06 µM; in test [5], 3.88 µM; in test [6], 3.09 µM. Also, the TGI in test [7] is 5.32 µM; in test [8] it was 3.64 µM; in test [10], 2.38 µM.
